From ChEMBL document CHEMBL1255230, “Chemical inhibitor of nonapoptotic cell death with therapeutic potential for ischemic brain injury” (Nat Chem Biol, 2005) come the findings set out here.

pIC50: −log10 of the molar value. The source made the active and inactive calls. No cut-off for these calls is given here. Residues, ends and D or L forms follow the SMILES beside them. *: point of attachment. Cbz = O=C(OCc1ccccc1)*; CH2F = FC*

For assay [1], the system named is Mus musculus. Nature of the assay: Inhibition of necroptosis in icv dosed mouse middle cerebral artery occlusion induced ischemic injury model assessed as reduction of infarct volume drug administered 6 hrs postocclusion. It counts as functional, organism-based.
Assay [2] in a line: Inhibition of death receptor signaling mediated necroptotic cell death in human Jurkat cell deficient in FADD assessed as cell viability after 30 hrs by ATP based viability assay in presence of TNFalpha.
For assay [3], the system named is Mus musculus. Nature of the assay: Inhibition of necroptosis in icv dosed mouse middle cerebral artery occlusion induced ischemic injury model assessed as reduction of infarct volume drug administered 4 hrs postocclusion. Format: functional, organism-based.
The test system of assay [4] is Mus musculus. Put plainly: Inhibition of necroptosis in icv dosed mouse middle cerebral artery occlusion induced ischemic injury model assessed as reduction of infarct volume drug administered 2 hrs postocclusion. Format: functional, organism-based.
The test system of assay [5] is Mus musculus. Nature of the assay: Inhibition of necroptosis in mouse middle cerebral artery occlusion induced ischemic injury model assessed as reduction of infarct volume at 2-4 mM, icv after occlusion. It counts as functional, organism-based.
In assay [6] the test system is Mus musculus. Put plainly: Inhibition of necroptosis in icv dosed mouse middle cerebral artery occlusion induced ischemic injury model assessed as reduction of infarct volume drug administered 5 mins preocclusion. Format: functional, organism-based.
Assay [7] deals with Mus musculus. Nature of the assay: Inhibition of necroptosis in icv dosed mouse middle cerebral artery occlusion induced ischemic injury model assessed as induction of LC3-II by Western blot method drug administered 4 hrs postocclusion. Format: functional, organism-based. (Immunoblotting shows a protein as a band on a membrane.)
Assay [8] has as its system Mus musculus. Put plainly: Inhibition of caspase3 in icv dosed mouse middle cerebral artery occlusion induced ischemic injury model after 3 hrs by Western blot method drug administered before occlusion. Format: functional, organism-based.
Another assay relates to Jurkat. Nature of the assay: Ratio of compound IC50 to Nec-1 IC50 for human jurkat cells. It counts as functional.
Assay [9] concerns Mus musculus. Put plainly: Inhibition of necroptosis in icv dosed mouse middle cerebral artery occlusion induced ischemic injury model assessed as improvement in neurological score drug administration after occlusion. Format: functional, organism-based.
Assay [10] has as its system Mus musculus. Put plainly: Inhibition of necroptosis in icv dosed mouse middle cerebral artery occlusion induced ischemic injury model assessed as improvement in neurological score drug administration before occlusion. Format: functional, organism-based.
Assay [11] concerns Mus musculus. Put plainly: Inhibition of necroptosis in icv dosed mouse middle cerebral artery occlusion induced ischemic injury model assessed as induction of LC3-II after 5 hrs by Western blot method. It counts as functional, organism-based.
Assay [12] deals with Mus musculus. Nature of the assay: Inhibition of necroptosis in icv dosed mouse middle cerebral artery occlusion induced ischemic injury model assessed as induction of LC3-II after 26 hrs by Western blot method. It counts as functional, organism-based.
Assay [13] relates to Mus musculus. Put plainly: Inhibition of necroptosis in mouse middle cerebral artery occlusion induced ischemic injury model assessed as reduction of infarct volume at 2-4 mM, icv before occlusion. Format: functional, organism-based.
For assay [14], the system named is Mus musculus. Nature of the assay: Inhibition of necroptosis in icv dosed mouse middle cerebral artery occlusion induced ischemic injury model assessed as induction of LC3-II by Western blot method drug administered 6hrs postocclusion. Format: functional, organism-based.
The subject of assay [15] is Mus musculus. Put plainly: Inhibition of necroptosis in icv dosed mouse middle cerebral artery occlusion induced ischemic injury model assessed as induction of LC3-II after 8 hrs by Western blot method. It counts as functional, organism-based.
Assay [16] has as its system Mus musculus. Nature of the assay: Inhibition of necroptosis in icv dosed mouse middle cerebral artery occlusion induced ischemic injury model assessed as induction of LC3-II by Western blot method drug administered 8 hrs postocclusion. It counts as functional, organism-based.
In assay [17] the test system is Mus musculus. Put plainly: Inhibition of necroptosis in icv dosed mouse middle cerebral artery occlusion induced ischemic injury model assessed as reduction of infarct volume. It counts as functional, organism-based.

As a reminder, the pIC50 is the IC50 on a negative log10 scale, so that one unit is a factor of ten.

`CN1C(=O)NC(Cc2c[nH]c3c(Cl)cccc23)C1=O` (configuration not stated): the inhibition result in the assay on Mus musculus [1] and with Mus musculus [3] was “Active” throughout. The pIC50 in assay [2] was 6.69.

As to `CN1C(=O)C(Cc2c[nH]c3c(Cl)cccc23)NC1=S` (configuration not stated), the inhibition result in the assay with Mus musculus [4], in the assay on Mus musculus [1] and with Mus musculus [6] was “Active” in each case. Further, the inhibition entry in the assay on Mus musculus [5], in the assay with Mus musculus [9], with Mus musculus [10] and in the assay with Mus musculus [13] was “Dose-dependent effect” each time. The pIC50 in [2] was 6.74. The outcome in the assay with Mus musculus [7], in the assay on Mus musculus [11], in the assay with Mus musculus [12], in the assay with Mus musculus [14], in the assay on Mus musculus [15] and in the assay with Mus musculus [16] was Active. Besides, the inhibition result in the assay on Mus musculus [8] is “inactive”. For the same compound, the “fold change (FC)” value with Jurkat came out at 2.7.

Regarding `O=C1NC(=S)NC1Cc1c[nH]c2ccccc12` (configuration not stated), in the assay with Mus musculus [17], the inhibition result is “inactive”.

Take `CC(C)[C@H](NC(=O)OCc1ccccc1)C(=O)N[C@@H](C)C(=O)N[C@@H](CC(=O)O)C(=O)CF` (Cbz-Val-Ala-Asp-CH2F): the inhibition result in the assay with Mus musculus [1] was “inactive”. For the same compound, the inhibition result in the assay with Mus musculus [8] is “Active”.
